Test results from patent US8574608B2, “Bactericidal silver surfactant delivery into coating and polymer compositions” (Eastern Michigan Universtity, priority 2007, dated 2013).
Values joined by “and” are separate entries in the source; they are usually repeats but may differ in a detail not shown here. Equal values may be shown once. Read-outs that look alike come from different tables or passages of the source.

Assays:
E. coli [1] = assay: E. coli challenged by silver surfactants in laboratory acrylic paint; format: cell-based, Escherichia coli; conditions: 24 h contact time; for surviving bacteria (growth): laboratory solvent borne acrylate paint coating; as to surviving bacteria (growth): key: A minus sign (−) denotes no growth; a plus sign (+) denotes confluent growth; a capital P (P) denotes particle growth
E. coli [2] = assay: E. coli challenged by silver surfactants in commercial acrylic paint; format: cell-based, Escherichia coli; conditions: 24 h contact time; for surviving bacteria (growth): commercial solvent borne acrylate paint coating; as to surviving bacteria (growth): key: A minus sign (−) denotes no growth; a plus sign (+) denotes confluent growth; a capital P (P) denotes particle growth
S. aureus [3] = assay: S. aureus challenged by silver surfactants in laboratory acrylic clearcoat; format: cell-based, Staphylococcus aureus; conditions: 24 h contact time; for surviving bacteria (growth): laboratory solvent borne acrylate clearcoat; as to surviving bacteria (growth): key: A minus sign (−) denotes no growth; a plus sign (+) denotes confluent growth; a capital P (P) denotes particle growth
E. coli [4] = assay: E. coli challenged by silver surfactants in commercial alkyd paint; format: cell-based, Escherichia coli; conditions: alkyd resin paint coating, 24 h contact time; also: key: A minus sign (−) denotes no growth; a plus sign (+) denotes confluent growth; a capital P (P) denotes particle growth
E. coli [5] = assay: E. coli challenged by silver surfactants in commercial 2K epoxy paint; format: cell-based, Escherichia coli; conditions: 24 h contact time; for surviving bacteria (growth): commercial 2K epoxy paint coating
Staphylococcus aureus = assay: Growth on agar plates containing sodium surfactant; format: cell-based; also: test concentration or dose not given here
S. aureus [6] = format: cell-based, Staphylococcus aureus
Candida tropicalis = format: cell-based
Streptococcus viridans = assay: Growth on agar plates containing sodium surfactant; format: cell-based
Streptococcus pneumoniae = format: cell-based
B. subtilis = format: cell-based, Bacillus subtilis
Micrococcus luteus = assay: Growth on agar plates containing sodium surfactant; format: cell-based
Bacillus subtilis = assay: Growth on agar plates containing sodium surfactant; format: cell-based; also: test concentration or dose not given here
Streptococcus bovis = assay: Growth on agar plates containing sodium surfactant; format: cell-based
Gram-positive bacteria = format: cell-based
Gram-negative bacteria = format: cell-based
Enterococcus fecalis = assay: Growth on agar plates containing sodium surfactant; format: cell-based; also: test concentration or dose not given here
Streptococcus agalactiae = assay: Growth on agar plates containing sodium surfactant; format: cell-based; also: test concentration or dose not given here
Streptococcus pyogenes = assay: Growth on agar plates containing sodium surfactant; format: cell-based
[7] = tested on: Staphylococcus epidermidis; assay: Growth on agar plates containing sodium surfactant; format: cell-based

Molecule: CCCCCCCCCCCCOS(=O)(=O)[O-].[Ag+] [AgDS, Silver dodecylsufate]
- silver level effective at preventing any growth (E. coli [1]; laboratory acrylic paint): 0.03 % w/w
- silver level with partial inhibition (only partial growth) (E. coli [1]; laboratory acrylic paint): 0.012%
- surviving bacteria (growth) (E. coli [1]; 0.0012 weight % Ag in coating): +
- surviving bacteria (growth) (E. coli [1]; 0.003 weight % Ag in coating): +
- surviving bacteria (growth) (E. coli [1]; 0.006 weight % Ag in coating): +
- surviving bacteria (growth) (E. coli [1]; 0.03 weight % Ag in coating): −
- surviving bacteria (growth) (E. coli [1]; 0.06 weight % Ag in coating): −
- surviving bacteria (growth) (E. coli [1]; 0.12 weight % Ag in coating): −
- silver level effective at preventing any growth (E. coli [2]; commercial acrylic paint): 0.03 % w/w
- surviving bacteria (growth) (E. coli [2]; 0.0012 weight % Ag in coating): +
- surviving bacteria (growth) (E. coli [2]; 0.003 weight % Ag in coating): +
- surviving bacteria (growth) (E. coli [2]; 0.006 weight % Ag in coating): +
- surviving bacteria (growth) (E. coli [2]; 0.012 weight % Ag in coating): +
- surviving bacteria (growth) (E. coli [2]; 0.03 weight % Ag in coating): −
- surviving bacteria (growth) (E. coli [2]; 0.06 weight % Ag in coating): −
- surviving bacteria (growth) (E. coli [2]; 0.12 weight % Ag in coating): −
- surviving bacteria (growth) (S. aureus [3]; 0.0012 weight % Ag in coating): −
- surviving bacteria (growth) (S. aureus [3]; 0.003 weight % Ag in coating): −
- surviving bacteria (growth) (S. aureus [3]; 0.006 weight % Ag in coating): −
- surviving bacteria (growth) (S. aureus [3]; 0.012 weight % Ag in coating): −
- surviving bacteria (growth) (S. aureus [3]; 0.03 weight % Ag in coating): −
- surviving bacteria (growth) (S. aureus [3]; 0.06 weight % Ag in coating): −
- surviving bacteria (growth) (S. aureus [3]; 0.12 weight % Ag in coating): −
- surviving bacteria (growth) (E. coli [4]; 0.0012 weight % Ag in coating): +
- surviving bacteria (growth) (E. coli [4]; 0.003 weight % Ag in coating): +
- surviving bacteria (growth) (E. coli [4]; 0.006 weight % Ag in coating): +
- surviving bacteria (growth) (E. coli [4]; 0.012 weight % Ag in coating): +
- surviving bacteria (growth) (E. coli [4]; 0.03 weight % Ag in coating): −
- surviving bacteria (growth) (E. coli [4]; 0.06 weight % Ag in coating): −
- surviving bacteria (growth) (E. coli [4]; 0.12 weight % Ag in coating): −
- surviving bacteria (growth) (E. coli [5]; 0.0012 weight % Ag in coating): +
- surviving bacteria (growth) (E. coli [5]; 0.003 weight % Ag in coating): +
- surviving bacteria (growth) (E. coli [5]; 0.006 weight % Ag in coating): +
- surviving bacteria (growth) (E. coli [5]; 0.03 weight % Ag in coating): −
- surviving bacteria (growth) (E. coli [5]; 0.06 weight % Ag in coating): −
- surviving bacteria (growth) (E. coli [5]; 0.12 weight % Ag in coating): −
- silver level giving complete inhibition of growth (E. coli [5]; commercial 2K epoxy paint): 0.03 % w/w
- silver level partially effective (E. coli [5]; commercial 2K epoxy paint): 0.012 % w/w

Molecule: silver linearalkanebenzene sulfonate [AgLABS]
- silver level with partial inhibition (only partial growth) (E. coli [1]; laboratory acrylic paint): 0.03%
- surviving bacteria (growth) (E. coli [1]; 0.0012 weight % Ag in coating): +
- surviving bacteria (growth) (E. coli [1]; 0.003 weight % Ag in coating): +
- surviving bacteria (growth) (E. coli [1]; 0.006 weight % Ag in coating): +
- surviving bacteria (growth) (E. coli [1]; 0.012 weight % Ag in coating): +
- surviving bacteria (growth) (E. coli [1]; 0.06 weight % Ag in coating): −
- surviving bacteria (growth) (E. coli [1]; 0.12 weight % Ag in coating): −
- silver level partially effective (E. coli [2]; commercial acrylic paint): 0.03 % Ag w/w
- surviving bacteria (growth) (E. coli [2]; 0.0012 weight % Ag in coating): +
- surviving bacteria (growth) (E. coli [2]; 0.003 weight % Ag in coating): +
- surviving bacteria (growth) (E. coli [2]; 0.006 weight % Ag in coating): +
- surviving bacteria (growth) (E. coli [2]; 0.012 weight % Ag in coating): +
- surviving bacteria (growth) (E. coli [2]; 0.06 weight % Ag in coating): −
- surviving bacteria (growth) (E. coli [2]; 0.12 weight % Ag in coating): −
- silver level at which partial growth is observed (S. aureus [3]; laboratory acrylic clearcoat): 0.012 % Ag w/w and 0.006 % Ag w/w
- surviving bacteria (growth) (S. aureus [3]; 0.0012 weight % Ag in coating): −
- surviving bacteria (growth) (S. aureus [3]; 0.003 weight % Ag in coating): −
- surviving bacteria (growth) (S. aureus [3]; 0.03 weight % Ag in coating): −
- surviving bacteria (growth) (S. aureus [3]; 0.06 weight % Ag in coating): −
- surviving bacteria (growth) (S. aureus [3]; 0.12 weight % Ag in coating): −
- surviving bacteria (growth) (E. coli [4]; 0.0012 weight % Ag in coating): +
- surviving bacteria (growth) (E. coli [4]; 0.003 weight % Ag in coating): +
- surviving bacteria (growth) (E. coli [4]; 0.006 weight % Ag in coating): +
- surviving bacteria (growth) (E. coli [4]; 0.012 weight % Ag in coating): +
- surviving bacteria (growth) (E. coli [4]; 0.03 weight % Ag in coating): −
- surviving bacteria (growth) (E. coli [4]; 0.06 weight % Ag in coating): −
- surviving bacteria (growth) (E. coli [4]; 0.12 weight % Ag in coating): −
- surviving bacteria (growth) (E. coli [5]; 0.0012 weight % Ag in coating): +
- surviving bacteria (growth) (E. coli [5]; 0.003 weight % Ag in coating): +
- surviving bacteria (growth) (E. coli [5]; 0.006 weight % Ag in coating): +
- surviving bacteria (growth) (E. coli [5]; 0.012 weight % Ag in coating): +
- surviving bacteria (growth) (E. coli [5]; 0.03 weight % Ag in coating): −
- surviving bacteria (growth) (E. coli [5]; 0.06 weight % Ag in coating): −
- surviving bacteria (growth) (E. coli [5]; 0.12 weight % Ag in coating): −
- silver level giving complete inhibition of growth (E. coli [5]; commercial 2K epoxy paint): 0.03 % w/w

Molecule: CCCCC(CC)COC(=O)CC(C(=O)OCC(CC)CCCC)S(=O)(=O)[O-].[Na+] (centres unmarked) [sodium bis[2-ethylhexyl]sulfosuccinate]
- Survival: No Growth/Full Growth (Staphylococcus aureus): −
- killing of S. aureus (S. aureus [6]): killed all
- Survival: No Growth/Full Growth (Candida tropicalis): −
- effect on the yeast Candida tropicalis (Candida tropicalis): killed
- Survival: No Growth/Full Growth (Streptococcus viridans): −
- Survival: No Growth/Full Growth (Streptococcus pneumoniae): −
- killing of B. subtilis (B. subtilis): killed all
- Survival: No Growth/Full Growth (Micrococcus luteus): −
- Survival: No Growth/Full Growth (Bacillus subtilis): −
- Survival: No Growth/Full Growth (Streptococcus bovis): −
- effect on all Gram-positive bacteria tested (Gram-positive bacteria): killed
- response of Gram-negative bacteria (Gram-negative bacteria): resistant
- Survival: No Growth/Full Growth (Enterococcus fecalis): −
- Survival: No Growth/Full Growth (Streptococcus agalactiae): −
- Survival: No Growth/Full Growth (Streptococcus pyogenes): −
- Survival: No Growth/Full Growth [7]: −

Molecule: O=C(CC(C(=O)OC1CCCCC1)S(=O)(=O)[O-])OC1CCCCC1.[Na+] (centres unmarked) [Compound S5]
- Survival: No Growth/Full Growth (Staphylococcus aureus; agar plates with sodium surfactant, strain ATCC6538, replicates 1-2 or 1-3): +
- Survival: No Growth/Full Growth (Staphylococcus aureus; agar plates with sodium surfactant, strain EM24/ATCC25923, replicates 1-2 or 1-3): +
- Survival: No Growth/Full Growth (Streptococcus viridans; agar plates with sodium surfactant, strain EM8, replicates 1-2 or 1-3): +
- Survival: No Growth/Full Growth (Micrococcus luteus; agar plates with sodium surfactant, strain EM17, replicates 1-2 or 1-3): − (2×) and +
- Survival: No Growth/Full Growth (Bacillus subtilis; agar plates with sodium surfactant, strain ATCC33, replicates 1-2 or 1-3): − and +
- Survival: No Growth/Full Growth (Bacillus subtilis; agar plates with sodium surfactant, strain EM27, replicates 1-2 or 1-3): +
- Survival: No Growth/Full Growth (Streptococcus bovis; agar plates with sodium surfactant, strain EM12, replicates 1-2 or 1-3): −
- Survival: No Growth/Full Growth (Enterococcus fecalis; agar plates with sodium surfactant, strain EM19, first line, replicates 1-2 or 1-3): +
- Survival: No Growth/Full Growth (Enterococcus fecalis; agar plates with sodium surfactant, strain EM19, second line, replicates 1-2 or 1-3): +
- Survival: No Growth/Full Growth (Streptococcus agalactiae; agar plates with sodium surfactant, strain EM13, replicates 1-2 or 1-3): − and +
- Survival: No Growth/Full Growth (Streptococcus pyogenes; agar plates with sodium surfactant, strain EM14, replicates 1-2 or 1-3): −
- Survival: No Growth/Full Growth ([7]; agar plates with sodium surfactant, strain EM3/ATCC12228, replicates 1-2 or 1-3): +
